Laboratory results reported in paper PMC4459817, “Vasculotide reduces endothelial permeability and tumor cell extravasation in the absence of binding to or agonistic activation of Tie2” (EMBO Molecular Medicine, 2015).

Tested on: CMPTX-labeled tumor cells across HMVEC-LBl
Assay: modified Boyden chamber, trans-endothelial tumor cell migration, HMVEC-LBl
Assay type: cell-based, human
Conditions: 20 h, Fig1B, C
Description: ECs were first treated with Vasculotide (VT), PBS (vehicle/negative control), Ang1 (positive control), PEG-Cys (polyethylene glycol backbone), T7c (non-PEGylated CHHHRHSF peptides), or VT in the presence of 100-fold molar excess of T7c. The concentrations used, 10–20 ng/mL VT and 200–400 ng/mL Ang1, are estimated molar equivalents (0.71–1.43 nM). Thirty minutes later, ECs were stimulated with thrombin, 0.1% BSA (vehicle/negative control), or EDTA (positive control). Another 30mins later, the amount of FITC-dextran diffusion into the lower chambers (A, D) provides a measure of endothelial permeability. CMTPX-labeled tumor cells (TCs) were then dispensed into inserts, and the amount of TC fluorescence emitting from the underside of insert membranes after 20 h (B–C) or 28 h (E) reflects the efficiency of trans-endothelial TC migration. […] Three experiments (twice with HMVEC-LBl and once with HMVEC-DBl) were run with n = 3–5 inserts (independent biological replicates) per group and analyzed by two-sampled unpaired t-tests. […]
Endothelial cells (ECs) were grown on cell culture inserts with uncoated 8-μm-pore PET filter membranes to 100% confluency. […] After 30 min of thrombin stimulation or 4–6 h of TC-CM stimulation, FITC fluorescence (ex/em = 490/520 nm) was measured from a 50 μl sample of the lower chamber media. […]

Molecule	thrombin-stimulated migration of CMTPX-labeled TCs
CHHHRHSF [Vasculotide, 4-armed maleimide-functionalized polyethylene glycol (PEG) backbone to link together four cysteine-capped T7 peptides, that is, CHHHRHSF]	trends of reducing thrombin-stimulated migration
recombinant human Ang1 (rhAng1) (ligand, UniProt Q15389 16-498, looked up, angiopoietin-1, human, recombinant; also called angiopoietin-1; source: bought: R&D Systems (named for the Boyden chamber experiments)) HIGCSNQRRSPENSGRRYNRIQHGQCAYTFILPEHDGNCRESTTDQYNTNALQRDAPHVEPDFSSQKLQHLEHVMENYTQWLQKLENYIVENMKSEMAQIQQNAVQNHTATMLEIGTSLLSQTAEQTRKLTDVETQVLNQTSRLEIQLLENSLSTYKLEKQLLQQTNEILKIHEKNSLLEHKILEMEGKHKEELDTLKEEKENLQGLVTRQTYIIQELEKQLNRATTNNSVLQKQQLELMDTVHNLVNLCTKEGVLLKGGKREEEKPFRDCADVYQAGFNKSGIYTIYINNMPEPKKVFCNMDVNGGGWTVIQHREDGSLDFQRGWKEYKMGFGNPSGEYWLGNEFIFAITSQRQYMLRIELMDWEGNRAYSQYDRFHIGNEKQNYRLYLKGHTGTAGKQSSLILHGADFSTKDADNDNCMCKCALMLTGGWWFDACGPSNLNGMFYTAGQNHGKLNGIKWHYFKGPSYSLRSTTMMIRPLDF	counteract thrombin induction of trans-endothelium macromolecular permeability and tumor cell migration
